# Reference: patent publication US10538518B2, “Processes for preparing an FGFR inhibitor” (Principia Biopharma, Inc., priority 2015, dated 2020)
# Tests used:
# Assay type in all cases: physicochemical
# [1] = Exposure to elevated relative humidity, form checked by XRPD; settings: 93% relative humidity, four days, ambient temperature
# Procedure: XRPD patterns were obtained with a PANalytical X′Pert PRO MPD diffractometer using an incident beam of Cu radiation (1.54059 angstroms) produced using an Optix long, fine-focus source. The diffractometer was configured using the symmetric Bragg-Brentano geometry. Prior to analysis, a silicon sample (NIST SRM 640e) was analyzed to verify the observed position of the Si 111 peak was consistent with the NIST-certified position. A specimen of the sample was prepared as a thin, circular layer centered on a silicon zero-background substrate. Antiscatter slits (SS) were used to minimize the background generated by air. Soller slits for the incident and diffracted beams were used to minimize broadening fro axial divergence. Diffraction patterns were collected using a scanning position-sensitive detector located 240 mm from the sample.
# [2] = Dynamic vapor sorption/desorption (DVS) isotherm
# Procedure: Dynamic Vapor Sorption/Desorption (DVS)
# Dynamic Vapor Sorption/Desorption (DVS) data was collected on a VTI SGA-100 Vapor Sorption Analyzer, using NaCl and PVP as calibration standards. Samples were not dried prior to analysis. Sorption and desorption data were collected over a range from 5% to 95% relative humidity (RH) at 10% RH increments under a nitrogen purge. The equilibrium criterion used for analysis was less than 0.01000% weight change in 5 minutes with a maximum equilibration time of 3 hours. Data were not corrected for the initial moisture content of the samples.
# [3] = Thermogravimetric analysis (TGA); settings: up to 200° C.
# Procedure: Thermal Gravimetric Analysis
# Thermal Gravimetric Analysis (TGA) was performed using a TA Instruments Discovery thermographic analyzer, with temperature calibration being performed using nickel and Alumel™. Each sample was placed in a pan, hermetically sealed, the lid pierced, and then inserted into the thermal gravimetric furnace which was heated under nitrogen.
smiles,measurement,setting,value
"C=CC(=O)N1CCN(CCCn2c(=O)c(-c3c(Cl)c(OC)cc(OC)c3Cl)cc3cnc(NC)nc32)CC1 [Form 1, 6-(2,6-dichloro-3,5-dimethoxyphenyl)-2-(methylamino)-8-[3-[4-(prop-2-enoyl)piperazin-1-yl]propyl]-7H,8H-pyrido[2,3-d]pyrimidin-7-one]",change in form observable by XRPD (physical stability at elevated humidity),[1],did not result in any changes in form observable by XRPD
same,"phase change after DVS testing, by XRPD analysis",[2]; sample evaluated after exposure to humidity in the DVS testing,a phase change did not occur
same,"hygroscopicity (DVS: weight gain in each sorption cycle, hysteresis upon desorption)",[2]; sorption/desorption 5% to 95% RH,not hygroscopic
same,weight percent change (DVS isotherm),[2]; up to a percent relative humidity of about 95% (94.79%),≤ 0.31 wt %
same,weight loss (TGA),[3],≤ 0.20%
